Data taken from PubChem BioAssay AID248 (DTP/NCI, 2004).
Inconclusive results and toxic doses are left out. Cut-off read from the data, not from the text of the source: active = T/C of 150% or more; inactive = T/C below 125%.

Test system: L1210 leukemia ip in BDF1 mice, survival T/C
Assay: NCI In Vivo Anticancer Drug Screen. Data for tumor model L1210 Leukemia (intraperitoneal) in B6D2F1 (BDF1) mice
Conditions: endpoint: mean survival time, higher = longer survival
Method in brief: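 Transplantable tumor model; survival measured in treated vs vehicle control mice. Value = treated/control.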

[1] = dose: 100.0 mg/kg/injection, schedule: Q01DX001 (ip), vehicle: saline
[2] = dose: 200.0 mg/kg/injection, schedule: Q01DX001 (ip), vehicle: saline
[3] = dose: 200.0 mg/kg/injection, schedule: Q04DX003 (ip), vehicle: saline
[4] = dose: 400.0 mg/kg/injection, schedule: Q01DX001 (ip), vehicle: saline
[5] = dose: 400.0 mg/kg/injection, schedule: Q04DX003 (ip), vehicle: saline
[6] = dose: 100.0 mg/kg/injection, schedule: Q04DX002 (ip), vehicle: Klucel (hydroxypropylcellulose) (HPC)
[7] = dose: 200.0 mg/kg/injection, schedule: Q04DX002 (ip), vehicle: Klucel (hydroxypropylcellulose) (HPC)
[8] = dose: 400.0 mg/kg/injection, schedule: Q04DX002 (ip), vehicle: Klucel (hydroxypropylcellulose) (HPC)
[9] = dose: 100.0 mg/kg/injection, schedule: Q01DX001 (ip), vehicle: carboxymethylcellulose (CMC)
[10] = dose: 200.0 mg/kg/injection, schedule: Q01DX001 (ip), vehicle: carboxymethylcellulose (CMC)

Measured: T/C

C=C=CC(C)(C)C
inactive: [1] 96 % of control | [2] 96 % of control | [3] 100 % of control | [4] 96 % of control | [5] 100 % of control

CCCCN=C=NCCCN(C)C
inactive: dose: 62.5 mg/kg/injection, schedule: Q04DX003 (ip), vehicle: Klucel (hydroxypropylcellulose) (HPC) 103 % of control | dose: 125.0 mg/kg/injection, schedule: Q04DX003 (ip), vehicle: Klucel (hydroxypropylcellulose) (HPC) 96 % of control | dose: 250.0 mg/kg/injection, schedule: Q04DX003 (ip), vehicle: Klucel (hydroxypropylcellulose) (HPC) 92 % of control

CCOC(=O)C1CN(Cc2ccccc2)CCC1=O (stereo unspecified)
inactive: dose: 100.0 mg/kg/injection, schedule: Q04DX003 (ip), vehicle: saline 103 % of control | [3] 106 % of control | [5] 100 % of control

CC12CCC3c4ccc(Oc5ccc(N)cc5)cc4CCC3C1CCC2=O (stereo unspecified)
inactive: dose: 100.0 mg/kg/injection, schedule: Q01DX001 (sc), vehicle: steriod suspending solution 101 % of control | dose: 200.0 mg/kg/injection, schedule: Q01DX001 (sc), vehicle: steriod suspending solution 95 % of control | dose: 400.0 mg/kg/injection, schedule: Q01DX001 (sc), vehicle: steriod suspending solution 101 % of control

C(=N\N1CCN(/N=C/c2ccccc2)C1c1ccccc1)/c1ccccc1
inactive: dose: 100.0 mg/kg/injection, schedule: Q04DX003 (ip), vehicle: Klucel (hydroxypropylcellulose) (HPC) 106 % of control | dose: 200.0 mg/kg/injection, schedule: Q04DX003 (ip), vehicle: Klucel (hydroxypropylcellulose) (HPC) 94 % of control | dose: 400.0 mg/kg/injection, schedule: Q04DX003 (ip), vehicle: Klucel (hydroxypropylcellulose) (HPC) 101 % of control

O=C1Nc2cccc3cc(O)cc1c23
inactive: [1] 105 % of control | [2] 87 % of control | [4] 92 % of control

O=C1OCC/C1=C\OCCc1ccccc1
inactive: [6] 98 % of control | [7] 94 % of control | [8] 94 % of control

CCCC1(c2ccccc2)NC(=O)NC1=O (stereo unspecified)
inactive: [1] 96 % of control | [2] 102 % of control

COc1ccccc1-n1c(O)c(N=Nc2ccc(Br)cc2)c(=O)n(-c2ccccc2OC)c1=S
inactive: dose: 100.0 mg/kg/injection, schedule: Q01DX001 (ip), vehicle: Klucel (hydroxypropylcellulose) (HPC) 103 % of control | dose: 200.0 mg/kg/injection, schedule: Q01DX001 (ip), vehicle: Klucel (hydroxypropylcellulose) (HPC) 105 % of control | dose: 400.0 mg/kg/injection, schedule: Q01DX001 (ip), vehicle: Klucel (hydroxypropylcellulose) (HPC) 92 % of control

COc1cc(C=Nc2ccc(Cl)cc2)ccc1N(CCCl)CCCl
inactive: dose: 21.0 mg/kg/injection, schedule: Q01DX015 (ip), vehicle: carboxymethylcellulose (CMC) 110 % of control | dose: 36.0 mg/kg/injection, schedule: Q01DX015 (ip), vehicle: carboxymethylcellulose (CMC) 95 % of control | dose: 50.0 mg/kg/injection, schedule: Q01DX001 (ip), vehicle: carboxymethylcellulose (CMC) 120 % of control | [9] 108 % of control | dose: 133.0 mg/kg/injection, schedule: Q01DX001 (ip), vehicle: carboxymethylcellulose (CMC) 107 % of control | [10] 117 % of control

Cc1cc(N=Nc2c(C)ccc3ncccc23)ccc1N
inactive: dose: 3.12 mg/kg/injection, schedule: Q01DX001 (ip), vehicle: DMSO 90 % of control | dose: 6.25 mg/kg/injection, schedule: Q01DX001 (ip), vehicle: DMSO 98 % of control | dose: 12.5 mg/kg/injection, schedule: Q01DX001 (ip), vehicle: DMSO 98 % of control

CCCCCCCCCCOc1ccccc1C(=O)NCCN1CCCC1
inactive: dose: 15.0 mg/kg/injection, schedule: Q01DX015 (ip), vehicle: saline 88 % of control | dose: 30.0 mg/kg/injection, schedule: Q01DX015 (ip), vehicle: saline 91 % of control | dose: 60.0 mg/kg/injection, schedule: Q01DX015 (ip), vehicle: saline 91 % of control | dose: 120.0 mg/kg/injection, schedule: Q01DX015 (ip), vehicle: saline 88 % of control

COC(=O)N/N=C/c1cc(OC)ccc1O
inactive: [6] 97 % of control | [7] 114 % of control | [8] 104 % of control

CNC(=O)c1nc(C)c(C)[nH]c1=O
inactive: dose: 25.0 mg/kg/injection, schedule: Q01DX009 (ip), vehicle: water 98 % of control | dose: 50.0 mg/kg/injection, schedule: Q01DX009 (ip), vehicle: water 96 % of control | dose: 100.0 mg/kg/injection, schedule: Q01DX009 (ip), vehicle: water 98 % of control | dose: 100.0 mg/kg/injection, schedule: Q04DX003 (ip), vehicle: water 103 % of control | dose: 200.0 mg/kg/injection, schedule: Q01DX009 (ip), vehicle: water 89 % of control | dose: 200.0 mg/kg/injection, schedule: Q04DX003 (ip), vehicle: water 95 % of control

CC(=O)C(O)N1C(=O)C=CC1=O (stereo unspecified)
inactive: dose: 1.25 mg/kg/injection, schedule: Q01DX009 (ip), vehicle: saline 103 % of control | dose: 1.25 mg/kg/injection, schedule: Q#A X018 (ip), vehicle: saline 103 % of control | dose: 2.5 mg/kg/injection, schedule: Q01DX009 (ip), vehicle: saline 100 % of control | dose: 2.5 mg/kg/injection, schedule: Q04DX003 (ip), vehicle: water 104 % of control | dose: 2.5 mg/kg/injection, schedule: Q## X006 (ip), vehicle: water 104 % of control | dose: 2.5 mg/kg/injection, schedule: Q#A X018 (ip), vehicle: saline 102 % of control | dose: 5.0 mg/kg/injection, schedule: Q01DX009 (ip), vehicle: saline 91 % of control | dose: 5.0 mg/kg/injection, schedule: Q04DX003 (ip), vehicle: water 102 % of control | dose: 5.0 mg/kg/injection, schedule: Q## X006 (ip), vehicle: water 102 % of control | dose: 5.0 mg/kg/injection, schedule: Q#A X018 (ip), vehicle: saline 100 % of control | dose: 10.0 mg/kg/injection, schedule: Q## X006 (ip), vehicle: water 104 % of control | dose: 10.0 mg/kg/injection, schedule: Q#A X018 (ip), vehicle: saline 100 % of control

COC(OC)c1cc(=O)[nH]cn1
inactive: dose: 100.0 mg/kg/injection, schedule: Q01DX009 (ip), vehicle: Klucel (hydroxypropylcellulose) (HPC) 94 % of control | dose: 200.0 mg/kg/injection, schedule: Q01DX009 (ip), vehicle: Klucel (hydroxypropylcellulose) (HPC) 106 % of control | dose: 400.0 mg/kg/injection, schedule: Q01DX009 (ip), vehicle: Klucel (hydroxypropylcellulose) (HPC) 107 % of control

NNc1ccc(Br)cc1
inactive: [6] 102 % of control | [7] 115 % of control

CC(=O)CC(=O)C(F)(F)F.CC(=O)CC(=O)C(F)(F)F.CC(=O)CC(=O)C(F)(F)F.[Cr]
inactive: [9] 109 % of control | [10] 96 % of control | dose: 400.0 mg/kg/injection, schedule: Q01DX001 (ip), vehicle: carboxymethylcellulose (CMC) 98 % of control

COC1=CC23CCCN2CCc2cc4c(cc2C3C1O)OCO4 (stereo unspecified)
inactive: dose: 25.0 mg/kg/injection, schedule: Q01DX009 (ip), vehicle: saline 93 % of control | dose: 50.0 mg/kg/injection, schedule: Q01DX009 (ip), vehicle: saline 103 % of control | dose: 55.0 mg/kg/injection, schedule: Q01DX009 (ip), vehicle: saline 98 % of control | dose: 100.0 mg/kg/injection, schedule: Q01DX009 (ip), vehicle: saline 117 % of control | dose: 110.0 mg/kg/injection, schedule: Q01DX009 (ip), vehicle: saline 107 % of control | dose: 220.0 mg/kg/injection, schedule: Q01DX009 (ip), vehicle: saline 102 % of control
